Data: US20220009920A1 (GB005, Inc., priority 2020, published 2022)

Columns and labels:
Experiment in all cases: Large panel kinase profiling
Type in all cases: biochemical
Conditions in all cases: 1 μM test article, 1 mM ATP
MAPK3/ERK1 = molecular target: T1, MAPK3/ERK1 (Homo sapiens, UniProt P27361)
T1 construct: AssayQuant Technologies, Inc. (service provider)
Outline: (§1)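 Profiling across the panel relied on the PhosphoSens CSox-Sensor format. A compound concentration of 1 μM and an ATP level of 1 mM were used throughout.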

IKBKE/IKKE = molecular target: T2, IKBKE/IKKE (Homo sapiens, UniProt Q14164)
T2 construct: AssayQuant Technologies, Inc. (service provider)
T2 sequence (Q14164 1-716): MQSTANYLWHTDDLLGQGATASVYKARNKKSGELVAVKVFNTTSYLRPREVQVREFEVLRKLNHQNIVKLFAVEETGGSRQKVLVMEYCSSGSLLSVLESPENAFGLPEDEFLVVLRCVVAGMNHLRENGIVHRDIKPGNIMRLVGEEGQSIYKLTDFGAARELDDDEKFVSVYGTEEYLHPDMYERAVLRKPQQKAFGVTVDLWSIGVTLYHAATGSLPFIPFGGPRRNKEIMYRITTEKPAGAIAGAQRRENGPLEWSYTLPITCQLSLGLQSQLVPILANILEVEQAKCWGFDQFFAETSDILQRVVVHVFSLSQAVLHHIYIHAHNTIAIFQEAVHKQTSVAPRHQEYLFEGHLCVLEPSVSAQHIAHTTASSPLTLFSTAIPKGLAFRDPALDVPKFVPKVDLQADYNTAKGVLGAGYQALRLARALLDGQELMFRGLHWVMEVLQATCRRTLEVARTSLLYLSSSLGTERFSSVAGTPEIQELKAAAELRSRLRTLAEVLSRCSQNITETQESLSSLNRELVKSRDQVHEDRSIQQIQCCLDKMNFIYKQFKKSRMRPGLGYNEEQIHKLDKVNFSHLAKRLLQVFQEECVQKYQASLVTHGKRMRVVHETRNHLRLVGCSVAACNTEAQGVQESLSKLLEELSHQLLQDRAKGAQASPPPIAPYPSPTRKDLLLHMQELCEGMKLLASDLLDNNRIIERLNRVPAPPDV
Outline: as §1

EPHA3 = molecular target: T3, EPHA3 (Homo sapiens, UniProt P29320)
T3 sequence (P29320 21-983): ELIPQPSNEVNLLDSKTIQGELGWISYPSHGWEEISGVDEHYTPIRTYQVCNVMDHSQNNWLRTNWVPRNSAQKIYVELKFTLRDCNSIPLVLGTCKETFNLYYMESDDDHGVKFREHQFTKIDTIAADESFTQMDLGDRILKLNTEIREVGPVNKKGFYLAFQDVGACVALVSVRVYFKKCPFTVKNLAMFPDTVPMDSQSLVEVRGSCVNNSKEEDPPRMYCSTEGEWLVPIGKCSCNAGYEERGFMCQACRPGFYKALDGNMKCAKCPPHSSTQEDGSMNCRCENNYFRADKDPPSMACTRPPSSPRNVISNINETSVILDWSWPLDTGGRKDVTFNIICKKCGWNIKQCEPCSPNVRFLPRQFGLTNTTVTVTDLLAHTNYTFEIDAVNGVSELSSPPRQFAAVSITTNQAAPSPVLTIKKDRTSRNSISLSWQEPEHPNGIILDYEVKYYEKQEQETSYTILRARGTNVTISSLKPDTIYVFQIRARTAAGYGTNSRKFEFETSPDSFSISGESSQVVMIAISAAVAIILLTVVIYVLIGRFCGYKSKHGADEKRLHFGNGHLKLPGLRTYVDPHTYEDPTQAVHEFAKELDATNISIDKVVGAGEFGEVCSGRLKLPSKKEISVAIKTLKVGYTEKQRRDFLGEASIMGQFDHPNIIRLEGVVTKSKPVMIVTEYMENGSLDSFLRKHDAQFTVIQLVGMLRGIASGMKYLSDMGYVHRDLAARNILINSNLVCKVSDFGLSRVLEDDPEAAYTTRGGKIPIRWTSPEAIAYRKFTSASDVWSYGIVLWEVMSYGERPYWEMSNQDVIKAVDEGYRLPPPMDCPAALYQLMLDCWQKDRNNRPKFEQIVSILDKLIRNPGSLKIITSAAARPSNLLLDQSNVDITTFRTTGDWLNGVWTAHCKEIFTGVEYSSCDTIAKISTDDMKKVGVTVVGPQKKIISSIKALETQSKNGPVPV
Outline: as §1

CHUK/IKKA = molecular target: T4, CHUK/IKKA (Homo sapiens, UniProt O15111)
T4 construct: AssayQuant Technologies, Inc. (ran the panel)
T4 sequence (O15111 1-745): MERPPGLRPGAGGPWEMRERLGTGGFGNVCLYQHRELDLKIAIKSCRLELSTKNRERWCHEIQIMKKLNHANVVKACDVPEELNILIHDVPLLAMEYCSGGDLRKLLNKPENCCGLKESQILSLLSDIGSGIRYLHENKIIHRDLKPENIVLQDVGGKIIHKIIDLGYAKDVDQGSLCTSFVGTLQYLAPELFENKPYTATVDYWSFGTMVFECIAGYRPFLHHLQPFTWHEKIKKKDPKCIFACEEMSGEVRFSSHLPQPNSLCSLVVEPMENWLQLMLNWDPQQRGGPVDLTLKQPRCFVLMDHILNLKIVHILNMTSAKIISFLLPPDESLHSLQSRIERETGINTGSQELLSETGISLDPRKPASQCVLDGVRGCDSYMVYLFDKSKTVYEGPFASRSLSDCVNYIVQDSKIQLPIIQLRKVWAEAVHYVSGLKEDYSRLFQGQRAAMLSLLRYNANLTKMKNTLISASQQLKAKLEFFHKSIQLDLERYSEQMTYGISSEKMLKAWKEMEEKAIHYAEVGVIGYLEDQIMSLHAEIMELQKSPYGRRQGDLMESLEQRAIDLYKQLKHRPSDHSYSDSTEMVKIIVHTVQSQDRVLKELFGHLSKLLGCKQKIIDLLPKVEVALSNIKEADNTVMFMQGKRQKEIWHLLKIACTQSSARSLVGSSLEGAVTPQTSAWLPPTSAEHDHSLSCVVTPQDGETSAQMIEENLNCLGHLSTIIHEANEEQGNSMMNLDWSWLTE
Outline: as §1

HIPK3 = molecular target: T5, HIPK3 (Homo sapiens, UniProt Q9H422)
T5 construct: AssayQuant Technologies, Inc. (service provider)
T5 sequence (Q9H422 whole entry, species assumed): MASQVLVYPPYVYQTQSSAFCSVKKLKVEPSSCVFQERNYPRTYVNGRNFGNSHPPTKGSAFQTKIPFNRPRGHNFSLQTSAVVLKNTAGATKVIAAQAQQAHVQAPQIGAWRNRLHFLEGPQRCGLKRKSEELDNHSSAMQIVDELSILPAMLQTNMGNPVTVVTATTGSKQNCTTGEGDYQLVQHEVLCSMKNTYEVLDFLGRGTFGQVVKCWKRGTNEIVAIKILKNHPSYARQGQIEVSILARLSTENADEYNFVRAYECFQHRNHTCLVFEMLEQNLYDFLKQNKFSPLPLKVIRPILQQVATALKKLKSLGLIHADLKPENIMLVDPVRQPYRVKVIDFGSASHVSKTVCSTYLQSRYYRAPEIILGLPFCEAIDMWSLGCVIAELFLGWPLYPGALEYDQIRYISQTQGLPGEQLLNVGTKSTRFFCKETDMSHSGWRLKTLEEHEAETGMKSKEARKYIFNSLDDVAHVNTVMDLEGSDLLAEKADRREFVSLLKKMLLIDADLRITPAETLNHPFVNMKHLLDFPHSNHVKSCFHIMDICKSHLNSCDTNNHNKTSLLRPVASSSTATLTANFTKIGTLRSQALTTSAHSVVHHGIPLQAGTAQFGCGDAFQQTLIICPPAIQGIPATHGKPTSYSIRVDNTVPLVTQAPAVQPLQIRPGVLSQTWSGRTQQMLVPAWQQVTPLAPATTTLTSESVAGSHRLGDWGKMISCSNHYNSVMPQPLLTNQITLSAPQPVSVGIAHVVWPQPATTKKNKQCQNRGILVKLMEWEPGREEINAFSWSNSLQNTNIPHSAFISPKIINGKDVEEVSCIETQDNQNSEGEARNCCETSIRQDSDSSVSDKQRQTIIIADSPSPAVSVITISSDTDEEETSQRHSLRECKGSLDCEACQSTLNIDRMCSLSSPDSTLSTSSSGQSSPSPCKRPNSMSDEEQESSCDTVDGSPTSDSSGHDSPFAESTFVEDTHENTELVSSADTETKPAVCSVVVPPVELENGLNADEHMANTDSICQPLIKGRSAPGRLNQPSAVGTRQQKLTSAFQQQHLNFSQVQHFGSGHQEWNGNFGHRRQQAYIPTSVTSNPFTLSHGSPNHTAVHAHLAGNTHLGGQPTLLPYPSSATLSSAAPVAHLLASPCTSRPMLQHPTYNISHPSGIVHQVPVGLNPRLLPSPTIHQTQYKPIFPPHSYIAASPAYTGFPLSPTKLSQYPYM
Outline: as §1

FLT4 = molecular target: T6, FLT4 (Homo sapiens, UniProt P35916)
T6 construct: AssayQuant Technologies, Inc. (service provider)
T6 sequence (P35916 25-1363, species assumed): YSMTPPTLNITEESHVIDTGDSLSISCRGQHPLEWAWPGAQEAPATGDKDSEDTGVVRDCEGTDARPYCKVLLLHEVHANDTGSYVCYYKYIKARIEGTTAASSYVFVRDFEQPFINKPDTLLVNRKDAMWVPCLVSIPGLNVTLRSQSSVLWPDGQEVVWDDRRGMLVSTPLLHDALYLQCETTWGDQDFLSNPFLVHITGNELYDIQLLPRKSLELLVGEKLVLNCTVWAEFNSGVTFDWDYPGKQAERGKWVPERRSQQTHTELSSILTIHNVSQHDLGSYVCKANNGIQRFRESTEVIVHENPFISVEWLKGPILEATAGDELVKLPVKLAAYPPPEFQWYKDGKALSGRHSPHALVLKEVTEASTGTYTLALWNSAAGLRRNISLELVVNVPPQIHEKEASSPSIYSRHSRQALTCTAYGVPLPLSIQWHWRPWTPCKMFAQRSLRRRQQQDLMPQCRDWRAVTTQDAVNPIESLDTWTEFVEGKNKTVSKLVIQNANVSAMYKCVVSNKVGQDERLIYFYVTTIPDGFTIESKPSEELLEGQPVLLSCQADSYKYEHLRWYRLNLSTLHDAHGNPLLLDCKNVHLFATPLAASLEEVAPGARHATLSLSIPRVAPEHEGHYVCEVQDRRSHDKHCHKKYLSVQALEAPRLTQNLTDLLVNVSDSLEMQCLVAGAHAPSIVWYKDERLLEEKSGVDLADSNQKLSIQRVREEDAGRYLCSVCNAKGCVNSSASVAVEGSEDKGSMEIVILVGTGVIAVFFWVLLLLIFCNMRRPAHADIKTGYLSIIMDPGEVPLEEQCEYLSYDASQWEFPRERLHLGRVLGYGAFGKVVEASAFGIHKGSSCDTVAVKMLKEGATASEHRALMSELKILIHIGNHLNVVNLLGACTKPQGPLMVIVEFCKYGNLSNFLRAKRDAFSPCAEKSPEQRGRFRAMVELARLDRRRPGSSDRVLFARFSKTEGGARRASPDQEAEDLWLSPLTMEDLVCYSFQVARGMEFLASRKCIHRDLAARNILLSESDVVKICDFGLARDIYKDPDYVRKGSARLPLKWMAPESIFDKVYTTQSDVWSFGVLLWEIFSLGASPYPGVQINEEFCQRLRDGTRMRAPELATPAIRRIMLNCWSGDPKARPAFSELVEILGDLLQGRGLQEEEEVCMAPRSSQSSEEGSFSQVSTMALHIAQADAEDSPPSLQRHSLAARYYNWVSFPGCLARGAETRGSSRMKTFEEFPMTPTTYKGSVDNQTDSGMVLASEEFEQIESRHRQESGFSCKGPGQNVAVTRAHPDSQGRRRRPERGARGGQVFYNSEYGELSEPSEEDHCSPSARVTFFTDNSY
Outline: as §1

T1 sequence (P27361 whole entry): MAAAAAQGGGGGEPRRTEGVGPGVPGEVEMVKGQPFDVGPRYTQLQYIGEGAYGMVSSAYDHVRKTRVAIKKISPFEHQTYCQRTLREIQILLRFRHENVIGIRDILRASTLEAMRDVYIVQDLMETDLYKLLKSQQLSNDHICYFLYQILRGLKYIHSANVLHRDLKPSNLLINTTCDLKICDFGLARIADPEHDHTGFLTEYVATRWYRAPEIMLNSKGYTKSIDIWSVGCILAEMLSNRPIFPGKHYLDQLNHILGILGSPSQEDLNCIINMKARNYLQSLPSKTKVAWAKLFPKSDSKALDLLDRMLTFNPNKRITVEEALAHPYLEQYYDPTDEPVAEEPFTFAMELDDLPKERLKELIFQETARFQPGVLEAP

Structure (SMILES)	inhibition at 1 µM (MAPK3/ERK1)	inhibition at 1 µM (IKBKE/IKKE)	inhibition at 1 µM (EPHA3)	inhibition at 1 µM (CHUK/IKKA)	inhibition at 1 µM (HIPK3)	inhibition at 1 µM (FLT4)
C=CC(=O)N1CCCC(c2c(F)cc(C(N)=O)c3[nH]c4c(c23)CCCCC4)C1 (single isomer, unassigned) [Compound 5-6]	-22.1%	3.4%	0.7%	4%	-11.2%	19.7%
C=CC(=O)N1CCC[C@@H](c2c(F)cc(C(N)=O)c3[nH]c4c(c23)CC2(CC4)CC2)C1 [Compound 6-2, (S)-5-(1-acryloylpiperidin-3-yl)-6-fluoro-1,2,4,9-tetrahydrospiro[carbazole-3,1′-cyclopropane]-8-carboxamide]	22.7%	-18%	10.1%	-36.4%	30.6%	20.4%
C=CC(=O)N1CCC[C@@H](c2c(F)cc(C(N)=O)c3[nH]c4c(c23)CCC4)C1 [Compound 10-2, (S)-8-(1-acryloylpiperidin-3-yl)-7-fluoro-1,2,3,4-tetrahydrocyclo-penta[b]indole-5-carboxamide]	5.5%	-12.8%	1.6%	-14.5%	34.7%	1.8%
